In PubChem BioAssay (NCI):
Values joined by “and” are separate entries in the source; they are usually repeats but may differ in a detail not shown here. Equal entries are not always repeated.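 Dose response: 5 concentrations. Exposure: 48 h. Format: 96-well plates. Endpoint: linear interpolation; highest concentration if not reached. GI50 = concentration required for 50% inhibition of growth. TGI marks complete inhibition of growth.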

Columns and labels:
Assay in all cases: inhibition of tumour cell growth, NCI panel, 48 h
SN12C renal = test system: SN12C renal
HCC-2998 colon = test system: HCC-2998 colon
A498 renal = test system: A498 renal
SK-OV-3 ovarian = test system: SK-OV-3 ovarian
NCI/ADR-RES ovarian = test system: NCI/ADR-RES ovarian
HOP-62 NSCLC = test system: HOP-62 NSCLC
MDA-MB-231 breast = test system: MDA-MB-231 breast
DU-145 prostate = test system: DU-145 prostate
SW-620 colon = test system: SW-620 colon
SNB-19 CNS = test system: SNB-19 CNS

Row | Compound | TGI (SN12C renal) | TGI (HCC-2998 colon) | TGI (A498 renal) | TGI (SK-OV-3 ovarian) | TGI (NCI/ADR-RES ovarian) | TGI (HOP-62 NSCLC) | TGI (MDA-MB-231 breast) | TGI (DU-145 prostate) | TGI (SW-620 colon) | TGI (SNB-19 CNS) | GI50 (SN12C renal) | GI50 (HCC-2998 colon) | GI50 (SK-OV-3 ovarian) | GI50 (HOP-62 NSCLC) | GI50 (MDA-MB-231 breast) | GI50 (SW-620 colon) | GI50 (SNB-19 CNS) | GI50 (A498 renal) | GI50 (NCI/ADR-RES ovarian) | GI50 (DU-145 prostate)
1 | CCCCC[C@H](O)[C@H](C)C=C1SCCCS1 | > 100 µM | > 100 µM | > 100 µM | > 100 µM | > 100 µM | > 100 µM | > 100 µM | > 100 µM | > 100 µM | > 100 µM | – | – | – | – | – | – | – | – | – | –
2 | O=C1C/C(=C\O)C(=O)c2ccccc2N1 | > 100 µM | > 100 µM | > 100 µM | > 100 µM | > 100 µM | > 100 µM | > 100 µM | > 100 µM | – | > 100 µM | – | – | – | – | – | – | – | – | – | –
3 | O=C1c2ccccc2S(=O)(=O)c2ccccc21 | > 100 µM | > 100 µM | > 100 µM | > 100 µM | > 100 µM | > 100 µM | > 100 µM | > 100 µM | > 100 µM | > 100 µM | – | – | – | – | – | – | – | – | – | –
4 | CCOC(=O)/C=C1\Nc2ccccc2C12CCc1c([nH]c3ccccc13)C2C(=O)OCC (stereo not drawn) | > 100 µM | > 100 µM | > 100 µM | > 100 µM | > 100 µM | > 100 µM | > 100 µM | > 100 µM | > 100 µM | > 100 µM | – | – | – | – | – | – | – | – | – | –
5 | CCOC(=O)C1C/C(C)=C(/C)SCCCS1 (stereo not drawn) | > 100 µM | > 100 µM | > 100 µM | > 100 µM | > 100 µM | > 100 µM | > 100 µM | > 100 µM | > 100 µM | > 100 µM | – | – | – | – | – | – | – | – | – | –
6 | O=C1c2ccccc2NC2C(O)c3ccccc3N12 (stereo not drawn) | > 100 µM | > 100 µM | 37.9 µM | > 100 µM | > 100 µM | > 100 µM | > 100 µM | > 100 µM | > 100 µM | > 100 µM | – | – | – | – | – | – | – | – | – | –
7 | CCCCCCCCCCCCCCCCP(=O)(O)OP(=O)(O)OCC1OC(n2ccc(N)nc2=O)C(O)C1O (stereo not drawn) | > 100 µM | > 100 µM and 91.2 µM | > 47.9 µM | > 100 µM and 72.6 µM | > 100 µM | 97.3 µM and 44.6 µM | > 100 µM | > 100 µM | > 100 µM and 59 µM | > 100 µM | 54.5 µM and 9.05 µM | 99.7 µM and 17 µM | > 100 µM and 11 µM | 31.5 µM and 4.41 µM | > 100 µM and 37.9 µM | > 100 µM and 14.4 µM | 70.5 µM and 16.1 µM | – | – | –
8 | Oc1ccc2ccccc2c1-c1nnc(CCCCCCCCc2nnc(-c3c(O)ccc4ccccc34)o2)o1 | – | 11.9 µM and > 62.1 µM | 25 µM and 41 µM | > 100 µM | – | > 25 µM and 12.4 µM | – | 9.59 µM and > 24.2 µM | 25 µM and > 43.2 µM | 25 µM and > 100 µM | 0.428 µM | 5.04 µM | – | > 25 µM | 0.583 µM | – | 17.6 µM | 14.2 µM | 0.38 µM | 2.38 µM
9 | CCCCCCCCCCCCCCCCOCC(CC(F)(F)P(=O)(O)O)OC(C)=O (stereo not drawn) | > 50 µM | > 50 µM | > 50 µM | > 50 µM | > 50 µM | > 50 µM | > 50 µM | > 50 µM | > 50 µM | > 50 µM | – | – | – | – | – | – | – | – | – | –
10 | COc1cn2c(cc1=O)COc1ccc(-c3ccccc3)cc1-2 | > 100 µM | > 100 µM | > 100 µM | > 100 µM | > 100 µM | > 100 µM | > 100 µM | > 100 µM | > 100 µM | > 100 µM | – | – | – | – | > 100 µM | – | – | 33 µM | – | –
